Legend:
[1] = biological target: T1, kinases of the scanMAX Kinase assay panel (Homo sapiens, UniProt Q8IVH8); assay: Kinase selectivity, DiscoverX scanMAX Kinase assay panel (% control); assay type: binding; settings: MAP4K3; 1 uM
T1 construct: purchased DiscoverX Co. (contract measurement) scanMAX Kinase assay panel
T1 sequence (Q8IVH8 1-894): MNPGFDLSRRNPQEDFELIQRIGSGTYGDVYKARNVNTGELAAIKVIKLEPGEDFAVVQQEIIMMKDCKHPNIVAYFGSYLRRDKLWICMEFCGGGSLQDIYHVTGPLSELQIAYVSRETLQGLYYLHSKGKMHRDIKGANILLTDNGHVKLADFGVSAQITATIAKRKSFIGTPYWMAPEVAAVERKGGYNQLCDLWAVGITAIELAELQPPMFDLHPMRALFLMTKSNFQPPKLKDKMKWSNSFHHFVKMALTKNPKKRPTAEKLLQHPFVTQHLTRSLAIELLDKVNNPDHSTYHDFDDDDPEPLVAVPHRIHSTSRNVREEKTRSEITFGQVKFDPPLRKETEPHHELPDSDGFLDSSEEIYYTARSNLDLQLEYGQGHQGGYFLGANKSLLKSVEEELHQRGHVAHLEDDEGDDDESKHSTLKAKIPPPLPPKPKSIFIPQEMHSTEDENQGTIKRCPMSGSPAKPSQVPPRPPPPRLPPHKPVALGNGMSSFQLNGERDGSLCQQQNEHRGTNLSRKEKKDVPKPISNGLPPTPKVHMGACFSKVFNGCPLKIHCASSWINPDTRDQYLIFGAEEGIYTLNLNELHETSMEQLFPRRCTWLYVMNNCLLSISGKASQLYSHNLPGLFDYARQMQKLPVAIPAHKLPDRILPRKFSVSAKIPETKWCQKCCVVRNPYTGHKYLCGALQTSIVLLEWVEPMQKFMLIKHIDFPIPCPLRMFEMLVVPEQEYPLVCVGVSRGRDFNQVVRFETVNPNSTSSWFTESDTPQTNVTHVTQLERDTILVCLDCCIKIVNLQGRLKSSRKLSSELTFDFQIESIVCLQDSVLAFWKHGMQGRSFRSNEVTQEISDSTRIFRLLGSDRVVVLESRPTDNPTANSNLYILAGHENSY
How it was run: (§1)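 Compounds tested at 1 uM against the scanMAX kinase panel. Signal expressed as % control = (compound − positive control)/(DMSO negative control − positive control) × 100, where positive control = 0% and DMSO = 100%; below 35% counted as activity on that kinase.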

[2] = biological target: T2, kinases of the scanMAX Kinase assay panel (Homo sapiens, UniProt Q9UQ88); assay: as above; assay type: binding; settings: CDC2L2; 1 uM
T2 construct: purchased DiscoverX Co. (contract measurement) scanMAX Kinase assay panel
T2 sequence (Q9UQ88 1-783): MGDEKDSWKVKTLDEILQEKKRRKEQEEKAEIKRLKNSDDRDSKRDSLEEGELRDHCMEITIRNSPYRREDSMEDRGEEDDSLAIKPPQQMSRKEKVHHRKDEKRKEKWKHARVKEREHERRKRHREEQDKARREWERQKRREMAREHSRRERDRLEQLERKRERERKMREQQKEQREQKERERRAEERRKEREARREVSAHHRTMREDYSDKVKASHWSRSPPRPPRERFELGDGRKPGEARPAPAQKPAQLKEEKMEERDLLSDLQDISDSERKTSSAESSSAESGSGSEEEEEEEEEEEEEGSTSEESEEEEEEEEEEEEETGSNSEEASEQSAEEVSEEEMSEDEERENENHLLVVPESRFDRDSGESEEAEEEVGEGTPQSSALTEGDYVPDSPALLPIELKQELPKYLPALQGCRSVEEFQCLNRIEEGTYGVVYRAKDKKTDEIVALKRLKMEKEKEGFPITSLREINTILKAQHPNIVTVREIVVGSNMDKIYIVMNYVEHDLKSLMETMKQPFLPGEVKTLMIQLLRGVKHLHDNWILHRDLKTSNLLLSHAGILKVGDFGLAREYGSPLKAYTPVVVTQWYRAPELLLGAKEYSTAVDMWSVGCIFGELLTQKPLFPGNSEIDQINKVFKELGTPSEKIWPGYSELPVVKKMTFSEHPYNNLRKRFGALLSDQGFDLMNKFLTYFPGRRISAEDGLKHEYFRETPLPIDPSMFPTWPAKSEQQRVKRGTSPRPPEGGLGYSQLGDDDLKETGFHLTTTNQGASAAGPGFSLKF
How it was run: as §1

| SMILES | remaining binding at 1 µM [1] | remaining binding at 1 µM [2] |
| --- | --- | --- |
| CC1(Nc2nc(Nc3cnn([C@H]4CCN(C5COC5)C[C@@H]4F)c3Cl)nc3[nH]cc(C#N)c23)CC1 [Example 52, 2-((5-chloro-1-((3S,4S)-3-fluoro-1-(oxetane-3-yl)piperidine-4-yl)-1H-pyrazole-4-yl)amino)((1-methylcyclopropyl)amino)-7H-pyrrolo[2,3-d]pyrimidine-5-carbonitrile] | 3.3% | 100% |
| CNc1nc(Nc2ccc(C(=O)N3CCOCC3)cc2OC)nc2[nH]cc(C#N)c12 [Example 1, 2-((2-methoxy-4-(morpholine-4-carbonyl)phenyl)amino)-4-(methylamino)-7H-pyrrolo[2,3-d]pyrimidine-5-carbonitrile] | 97% | 91% |
| CCNc1nc(Nc2ccc(C(=O)N3CCC(N4CCOCC4)CC3)cc2OC)nc2[nH]cc(C(F)(F)F)c12 [Example 104, (4-((4-(ethylamino)-5-(trifluoromethyl)-7H-pyrrolo[2,3-d]pyrimidine-2-yl)amino)-3-methoxyphenyl)(4-morpholinopiperidine-1-yl)methanone] | 100% | 98% |

— patent US11208412B2 (DAEGU-GYEONGBUK MEDICAL INNOVATION FOUNDATION, priority 2017, dated 2021)
